In ChEMBL document CHEMBL1201862, “PubChem BioAssay data set” (2004):
Activity calls are given as the source filed them.

Legend:
Beta-galactosidase = Beta-galactosidase (Escherichia coli, UniProt Q8VNN2); test: PubChem AID 485352; format: functional
[1] = general cell-killing toxicity readout – plate reader, dry powder samples, cytotoxicity control for PAX8 inhibitor project, dose response (AID 743021); format: functional, cell-based
[2] = target: T1, Type-1 angiotensin II receptor (Homo sapiens, UniProt P30556); test: antagonism of angiotensin II type 1 receptor – cell-based, uHTS hits, selectivity assay for APJ receptor antagonist project, dose response (AID 463214); format: functional;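 note: antagonist potency against angiotensin II stimulated AT1 response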
T1 sequence (P30556 whole entry): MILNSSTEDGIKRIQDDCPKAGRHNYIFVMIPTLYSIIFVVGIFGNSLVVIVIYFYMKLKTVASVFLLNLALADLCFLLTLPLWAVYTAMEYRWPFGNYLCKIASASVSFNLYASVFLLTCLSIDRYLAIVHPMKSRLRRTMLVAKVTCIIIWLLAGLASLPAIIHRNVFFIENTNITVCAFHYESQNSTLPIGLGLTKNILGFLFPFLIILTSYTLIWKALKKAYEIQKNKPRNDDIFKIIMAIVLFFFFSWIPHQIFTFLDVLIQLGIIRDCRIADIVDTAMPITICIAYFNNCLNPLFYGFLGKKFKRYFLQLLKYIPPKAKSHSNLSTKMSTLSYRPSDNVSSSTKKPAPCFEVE

[3] = target: G-protein coupled receptor 35 (Homo sapiens, UniProt Q9HC97); test: inhibition of zaprinast-stimulated GPR35 beta-arrestin translocation – imaging, U2OS, beta-arrestin-GFP, zaprinast agonist, primary screen (AID 2058); format: functional;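 note: antagonist potency meaning inhibition of agonist-induced arrestin redistribution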
Sequence of G-protein coupled receptor 35 (Q9HC97 whole entry): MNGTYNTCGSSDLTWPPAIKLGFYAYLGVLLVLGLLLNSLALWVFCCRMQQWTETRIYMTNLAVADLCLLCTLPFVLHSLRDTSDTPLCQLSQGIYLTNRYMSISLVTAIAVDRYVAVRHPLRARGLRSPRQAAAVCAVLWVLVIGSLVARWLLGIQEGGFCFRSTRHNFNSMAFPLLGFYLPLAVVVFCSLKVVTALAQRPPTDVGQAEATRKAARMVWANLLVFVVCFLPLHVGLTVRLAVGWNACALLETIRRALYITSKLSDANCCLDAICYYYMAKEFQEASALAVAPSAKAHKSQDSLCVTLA

[4] = loss of viability in HepG2 cells – cell-based, CellTiter-Glo, cherry-picked, cytotoxicity control for Shn3 inhibitor project, dose response (AID 624134); format: functional
Beta Lactamase = Beta Lactamase (Pseudomonas aeruginosa, UniProt Q932Y6); test: BLA reporter interference, concentration series – BLA reporter cells, FRET fluorescence, artefact control for TLR9-MyD88 binding inhibitor project, dose response (AID 588341); format: cell-based;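 note: cell based assay in CHO-K1 cells stably expressing beta-lactamase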
Sequence of Beta Lactamase (Q932Y6 whole entry): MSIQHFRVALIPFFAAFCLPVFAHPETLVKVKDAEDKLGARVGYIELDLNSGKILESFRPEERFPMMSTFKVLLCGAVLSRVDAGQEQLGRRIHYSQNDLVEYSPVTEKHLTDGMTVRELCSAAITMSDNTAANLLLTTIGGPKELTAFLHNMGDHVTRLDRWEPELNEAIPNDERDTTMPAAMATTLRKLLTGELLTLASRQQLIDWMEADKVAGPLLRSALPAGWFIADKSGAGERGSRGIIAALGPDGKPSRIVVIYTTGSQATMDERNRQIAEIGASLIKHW

Nonstructural protein 1 = Nonstructural protein 1 (Influenza A virus, UniProt Q194T2); format: functional, Influenza A virus (A/California/07/2009(H1N1))
Sequence of Nonstructural protein 1 (Q194T2 whole entry): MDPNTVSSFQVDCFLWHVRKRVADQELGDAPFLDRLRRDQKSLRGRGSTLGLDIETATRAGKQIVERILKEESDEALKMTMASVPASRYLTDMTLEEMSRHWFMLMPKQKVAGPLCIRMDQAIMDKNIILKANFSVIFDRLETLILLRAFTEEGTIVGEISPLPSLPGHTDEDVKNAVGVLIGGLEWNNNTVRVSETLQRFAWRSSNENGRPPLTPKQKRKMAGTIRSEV

Sequence of Beta-galactosidase (Q8VNN2 whole entry): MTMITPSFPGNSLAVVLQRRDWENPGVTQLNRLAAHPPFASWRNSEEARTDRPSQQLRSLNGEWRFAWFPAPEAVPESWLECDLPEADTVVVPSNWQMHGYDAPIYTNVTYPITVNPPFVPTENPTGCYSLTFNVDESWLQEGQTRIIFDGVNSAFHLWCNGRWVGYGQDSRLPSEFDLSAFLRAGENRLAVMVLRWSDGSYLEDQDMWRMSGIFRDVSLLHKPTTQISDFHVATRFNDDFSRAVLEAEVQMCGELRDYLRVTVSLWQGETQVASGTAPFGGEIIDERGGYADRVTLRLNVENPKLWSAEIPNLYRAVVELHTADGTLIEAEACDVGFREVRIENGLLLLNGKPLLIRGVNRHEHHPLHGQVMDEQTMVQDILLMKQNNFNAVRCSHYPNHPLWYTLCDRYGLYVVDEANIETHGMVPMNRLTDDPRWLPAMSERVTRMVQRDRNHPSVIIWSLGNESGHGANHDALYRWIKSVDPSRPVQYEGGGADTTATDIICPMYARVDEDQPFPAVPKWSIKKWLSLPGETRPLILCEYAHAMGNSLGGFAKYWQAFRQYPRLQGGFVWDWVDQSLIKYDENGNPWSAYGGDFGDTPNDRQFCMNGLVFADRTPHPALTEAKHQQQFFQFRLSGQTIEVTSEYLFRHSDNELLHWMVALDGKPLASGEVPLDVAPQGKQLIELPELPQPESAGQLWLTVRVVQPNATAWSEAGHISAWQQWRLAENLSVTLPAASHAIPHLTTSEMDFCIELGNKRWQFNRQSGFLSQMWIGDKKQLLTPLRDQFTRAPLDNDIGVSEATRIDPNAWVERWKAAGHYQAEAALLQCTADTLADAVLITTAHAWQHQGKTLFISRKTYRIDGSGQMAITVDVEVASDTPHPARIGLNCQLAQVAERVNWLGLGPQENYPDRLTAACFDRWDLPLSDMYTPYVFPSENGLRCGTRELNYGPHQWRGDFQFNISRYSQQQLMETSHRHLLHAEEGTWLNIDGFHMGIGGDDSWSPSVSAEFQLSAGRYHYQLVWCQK

Row | SMILES | EC50 (Beta-galactosidase) | AC50 [1] | IC50 [2] | IC50 [3] | AC50 [4] | IC50 (Beta Lactamase) | IC50 (Nonstructural protein 1)
1 | CCC1CCCCN1S(=O)(=O)c1ccc(NC(=O)c2nc(S(C)(=O)=O)ncc2Cl)cc1 (configuration not stated) | > 40 µM (inactive) | 20.8 µM (active) | 5.9 µM (active) | 3.23 µM (active) | 17 µM (active) | 11.1 µM (inactive) | –
2 | CC(=O)c1cccc2c1N=C(c1[nH]c3ccccc3c1O)C2=O | – | – | – | – | – | – | 13.9 µM (active)
